Reference: publication PMC9441601, “Aspergillus oryzae accelerates the conversion of ergosterol to ergosterol peroxide by efficiently utilizing cholesterol” (Frontiers in Genetics, 2022)
Read-outs that look alike come from different tables or passages of the source.

Biological target: T1, Osh3 (Aspergillus oryzae, UniProt Q2U562)
T1 construct: gene AO090020000057
Experiment: microscale thermophoresis (MST), purified fluorescently labelled Osh3
Assay type: binding

T1 sequence (Q2U562 entry or part of it): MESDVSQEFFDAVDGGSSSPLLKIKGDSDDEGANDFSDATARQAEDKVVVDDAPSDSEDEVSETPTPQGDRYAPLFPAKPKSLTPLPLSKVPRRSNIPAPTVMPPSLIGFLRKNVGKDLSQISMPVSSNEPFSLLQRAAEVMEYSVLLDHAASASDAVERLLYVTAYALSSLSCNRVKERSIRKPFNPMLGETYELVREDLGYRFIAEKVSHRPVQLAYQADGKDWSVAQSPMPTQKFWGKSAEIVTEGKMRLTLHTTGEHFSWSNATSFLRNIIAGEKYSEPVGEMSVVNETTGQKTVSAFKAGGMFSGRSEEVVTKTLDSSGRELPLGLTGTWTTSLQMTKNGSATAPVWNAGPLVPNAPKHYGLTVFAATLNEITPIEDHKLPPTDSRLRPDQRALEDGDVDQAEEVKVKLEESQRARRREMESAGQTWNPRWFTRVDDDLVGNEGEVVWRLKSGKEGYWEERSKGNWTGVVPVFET

Structure (SMILES)	Kd (read-out: Kd) [nM]	Kd [nM]
CC(C)CCC[C@@H](C)[C@H]1CC[C@H]2[C@@H]3C(=O)C=C4C[C@@H](O)CC[C@]4(C)[C@H]3CC[C@]12C [7-ketocholesterol]	1460	–
C[C@H](CCCC(C)(C)O)[C@H]1CC[C@H]2[C@@H]3CC=C4C[C@@H](O)CC[C@]4(C)[C@H]3CC[C@]12C [25-hydroxycholesterol]	9.1 ± 2	–
CC(C)[C@H](C)CC[C@@H](C)[C@H]1CC[C@H]2[C@@H]3CC=C4C[C@@H](O)CC[C@]4(C)[C@H]3CC[C@]12C [campesterol]	–	339 ± 78.1
CC(C)[C@@H](C)/C=C/[C@@H](C)[C@H]1CC[C@H]2C3=C[C@@H](O)[C@@]4(O)C[C@@H](O)CC[C@]4(C)[C@H]3CC[C@]12C [cerevisterol]	3.4 ± 1.3	–
CC(C)CCC[C@@H](C)[C@H]1CC[C@H]2[C@@H]3CC=C4C[C@@H](O)CC[C@]4(C)[C@H]3CC[C@]12C [cholesterol]	333 ± 45.3	–
CC(C)[C@@H](C)/C=C/[C@@H](C)[C@H]1CC[C@@H]2[C@]1(C)CC[C@H]1[C@]23C=C[C@]2(C[C@@H](O)CC[C@]12C)OO3 [ergosterol peroxide]	8.1 ± 2.1	–
CC(C)[C@@H](C)/C=C/[C@@H](C)[C@H]1CC[C@H]2C3=CC=C4C[C@@H](O)CC[C@]4(C)[C@H]3CC[C@]12C [ergosterol]	122 ± 24.3	–
CC[C@H](/C=C/[C@@H](C)[C@H]1CC[C@H]2[C@@H]3CC=C4C[C@@H](O)CC[C@]4(C)[C@H]3CC[C@]12C)C(C)C [stigmasterol]	–	1 ± 0.8
CC[C@H](CC[C@@H](C)[C@H]1CC[C@H]2[C@@H]3CC=C4C[C@@H](O)CC[C@]4(C)[C@H]3CC[C@]12C)C(C)C [β-sitosterol]	–	65.8 ± 24.6
